From patent US9133199B2, “Pyrimidine derivatives as protein kinase inhibitors” (Cyclacel Limited, priority 2007, dated 2015)
pIC50: −log10 of the molar value.

Assays:
[1] = target: AA (aurora kinase A) (Homo sapiens (Human), UniProt O14965); test: AA kinase inhibition (Table 1); assay type: biochemical; settings: Table 2; read-out: AurA IC50
[2] = test system: A2780/ADR cells; test: Cell viability assay (Alamar Blue, 72 hours), MDR line; assay type: cell-based, human; settings: paired parental and MDR tumour cell lines (A2780-A2780/ADR, MES-SA-MES-SA/Dx5)
From the text: In vitro cell viability assays have been used to measure the effect of drug accumulation in paired parental and drug resistant tumour cell lines. The pairs used are the human ovarian carcinoma A2780 line with its MDR counterpart A2780/ADR and the human uterine sarcoma MES-SA line with its MDR counterpart MES-SA/Dx5 [Wesolowska O., et al. (2005) Anticancer Res., 25, 383-389].
Method: Cultivated human tumour cells of the ovarian cell line A2780 and its doxorubicin-resistant pair, A2780/ADR and the uterine cell line MES-SA and its doxorubicin-resistant pair, MES-SA/DX5 were seeded at 3000 cells per well in Nunc 96-well tissue culture plates, 100 μl per well in DMEM media containing 10% foetal calf serum and penicillin/streptomycin. […] The plates were then read at 544/595 nm.
The amount of Alamar Blue reagent reacted represents the metabolic activity of the cells. […] The values were calculated from the average of three individual measurements with blank correction (medium-only control).
The assay was performed on the Biomek FxP, automation platform from Beckman Coulter. The plates were read on the Paradigm plate reader supplied by Beckman Coulter. Asymmetry ratios were calculated as the IC50 value of the compound in the drug resistant cells divided by the IC50 value in the parental cells. […]

[3] = Pharmacokinetics in fasted conscious CD-1 mice (iv and oral); assay type: in vivo; settings: compared to compounds A-G
Procedure: Preliminary investigations of the pharmacokinetics of selected compounds were carried out in fasted conscious CD-1 mice (25-30 g). Compounds were dosed as 1 mg/kg by intravenous administration or 5-10 mg/kg by oral route. Twenty one male mice per administration route (n=3 mice per time point) received dose solution by single bolus injection in the tail vein or by oral gavage. Blood samples were collected by cardiac puncture at 5, 15, 30, 60, 120, 240 and 360 min following iv administration and at 30, 60, 120, 240, 360, 480 and 1440 min following oral administration. Blood samples were collected into tubes containing the anti-coagulant lithium heparin, mixed and placed promptly on crushed ice. Plasma was derived from whole blood by centrifugation, frozen and stored at −80° C. prior to analysis. Plasma concentrations were determined by liquid chromatography-tandem mass spectrometry in electrospray positive mode (ESI LC/MS/MS) using calibration curves prepared in the appropriate matrix. The lower level of quantification (LLOQ) in all cases was ca. 5 ng/mL. Plasma concentration-time data was processed using the computer program WinNonLin version 5.2 from which areas under the plasma concentration-time curve (AUCall) were calculated by non-compartmental analysis using Model 201 (IV-bolus Input) or Model 200 (Extravascular Input).
FIG. 1 plots the area under the curve (AUC) for plasma concentration vs time for each compound tested. The dosing vehicle across these experiments remained constant (intravenous=citrate buffer pH 3, 1 mL/kg; oral=DMA/PEG400/10 mM Tartrate buffer, pH 4 (1:3:6), 5 ml/kg). FIG. 2 represents the same data in the form of oral bioavailability (% F) for each compound.

Sequence of AA (aurora kinase A) (O14965 whole entry, species assumed): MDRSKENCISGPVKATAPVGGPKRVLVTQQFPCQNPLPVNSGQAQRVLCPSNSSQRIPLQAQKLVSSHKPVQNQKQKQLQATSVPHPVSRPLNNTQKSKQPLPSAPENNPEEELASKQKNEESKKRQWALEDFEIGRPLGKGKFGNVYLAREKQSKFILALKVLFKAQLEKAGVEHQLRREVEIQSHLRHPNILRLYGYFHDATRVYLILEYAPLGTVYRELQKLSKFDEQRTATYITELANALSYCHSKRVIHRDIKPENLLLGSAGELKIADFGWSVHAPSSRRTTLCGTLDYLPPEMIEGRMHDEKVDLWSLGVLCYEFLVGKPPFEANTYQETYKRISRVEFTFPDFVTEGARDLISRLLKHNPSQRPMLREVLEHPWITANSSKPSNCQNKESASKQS

| Structure (SMILES) | pIC50 [1] | cellular efflux (MDR/parental cell asymmetry) [2] | oral bioavailability (% F) [3] | systemic exposure (AUC of plasma concentration vs time) ([3]; iv 1 mg/kg and oral 5-10 mg/kg) |
| --- | --- | --- | --- | --- |
| CN1C(=O)CCN(C2CCCC2)c2nc(Nc3cccc4cc[nH]c34)ncc21 [Compound 98, 9-Cyclopentyl-2-(1H-indol-7-ylamino)-5-methyl-5,7,8,9-tetra-hydro-pyrimido[4,5-b] [1,4]diazepin-6-one] | > 6.00 |  |  |  |
| CN1C(=O)CCN2CCC(=O)Nc3cccc(c3)Nc3ncc1c2n3 [Compound 282] | > 5.00 |  |  |  |
| COc1cc(C(=O)N[C@H]2CC[C@H](N3CCN(CC4CC4)CC3)CC2)ccc1Nc1ncc2c(n1)N(C1CCCC1)CC1(CC1)C(=O)N2C [Compound 371, 4-(9′-cyclopentyl-5′-methyl-6′-oxo-5′,6′,8′,9′-tetrahydrospiro[cyclopropane-1,7′-pyrimido[4,5-b][1,4]diazepine]-2′-ylamino)-N-((trans)-4-(4-(cyclopropylmethyl)piperazin-1-yl)cyclohexyl)-3-methoxybenzamide] |  | low cellular efflux | markedly superior | markedly superior |
| COc1cc(C(=O)N[C@H]2CC[C@H](N3CCN(CC4CC4)CC3)CC2)ccc1Nc1ncc2c(n1)N(C1CCCC1)CC(C)(C)C(=O)N2C [Compound 372, 4-(9-cyclopentyl-5,7,7-trimethyl-6-oxo-6,7,8,9-tetrahydro-5H-pyrimido[4,5-b][1,4]diazepin-2-ylamino)-N-((trans)-4-(4-(cyclopropylmethyl)piperazin-1-yl)cyclohexyl)-3-methoxybenzamide] |  | low cellular efflux |  |  |
